Measured values: patent US8877718B2, “Antiinfective and antitumoral compounds isolated from tropical lianas” (Julius-Maximilians-Universität Würzburg, priority 2008, dated 2014)
pEC50: −log10 of the molar value.

How the values were obtained:
[1] = tested on: Leishmania donovani (MHOM-ET-67/L82 strain) amastigote forms; test: Antiinfective effect against axenic amastigotes of Leishmania donovani (Alamar Blue fluorescence); format: cell-based; settings: for inhibition at 0.8 µg/mL: c = 0.8 μg/ml, read-out: Inhibition of cell growth (%) at c = 0.8 μg/ml; for inhibition at 4.8 µg/mL: c = 4.8 μg/ml, read-out: Inhibition of cell growth (%) at c = 4.8 μg/ml; for activity against Leishmania donovani (in words): summary of Table 6
Method: Amastigote forms of Leishmania donovani (MHOM-ET-67/L82 strain) were grown in axenic culture at 37° C. and pH 5.4 in SM medium (I. Cunningham, J. Protozool. 1977, 24, 325-329) supplemented with 10% fetal bovine serum. For the assay, amastigote forms were seeded into a microtiter plate containing two concentrations of each substance to be tested. After 72 h the dye Alamar Blue (Resazurin) was added to each culture, and the plate was incubated for two more hours. Fluorescence at 536/588 nm was measured using a microtiter plate fluorometer, and the fluorescence signal of each culture treated with a substance was compared to the fluorescence signal of untreated control cultures. The antileishmanial drug miltefosine served as a positive control.

[2] = tested on: DOHH-2 (aggressive B cell lymphoma) cell line; test: Cell viability, annexin V-FITC/PI flow cytometry, DOHH-2; format: cell-based; settings: human tumor cell line DOHH-1-2 (aggressive B cell lymphoma), 72 h incubation
Source text: (§1) Both cell lines of aggressive B cell lymphoma (DOHH-2, SU-DHL-4) and the multiple myeloma cell line RPMI8226 were obtained from the German Collection of Microorganisms and Cell Cultures (DSMZ) (ACC 47, ACC 495, and ACC 402, Braunschweig, Germany). The cultivation of the multiple myeloma cell line INA-6 had been previously described (R. Burger, A. Guenther, F. Bakker, M. Schmalzing, S. Bernand, W. Baum, B. Duerr, G. M. Hocke, H. Steininger, E. Gebhart, M. Gramatzki, Hematol. J. 2001, 2, 42-53). Normal mononuclear blood cells from the peripheral blood of two healthy donors were isolated by Ficoll-Hypaque density gradient centrifugation. To assess the percentage of apoptotic and viable cell fractions, a human annexin V-FITC/PI staining kit (Bender MedSystems, Vienna, Austria) was used. Cells (inoculation: 50000 cells mL^−1; incubation: 72 h) were washed in PBS, incubated for 10 min in 100 ml binding buffer (10 mM HEPES/NaOH, pH 7.4, 140 mM NaCl, 2.5 mM CaCl2) containing 2.5 ml annexin V-FITC mix and 1 mg/ml propidium iodide (PI), subsequently diluted with 300 ml binding buffer and analyzed by flow cytometry (FACSCalibur/CELLQuest; Becton Dickinson, Heidelberg, Germany). Early apoptosis is characterized by a positive annexin V-FITC staining. Cells in a late apoptotic stage lose their membrane integrity and additionally incorporate PI. […]

[3] = tested on: SU-DHL-4 (aggressive B cell lymphoma) cell line; test: Cell viability, annexin V-FITC/PI flow cytometry, SU-DHL-4; format: cell-based; settings: human tumor cell line SU-DH-4 L (aggressive B cell lymphoma), 72 h incubation
Source text: as §1

[4] = tested on: INA-6 (multiple myeloma) cell line; test: Cell viability, annexin V-FITC/PI flow cytometry, INA-6; format: cell-based; settings: human tumor cell line INA-6 (multiple myeloma); 72 h incubation
Source text: as §1

[5] = tested on: RPMI8226 (multiple myeloma) cell line; test: Cell viability, annexin V-FITC/PI flow cytometry, RPMI8226; format: cell-based; settings: RPMI-8226; human tumor cell line RPMI8226 (multiple myeloma); 72 h incubation
Source text: as §1

[6] = tested on: normal peripheral mononuclear blood cells; test: Cell viability, annexin V-FITC/PI flow cytometry, normal blood cells; format: cell-based, human; settings: FIG. 9; for toxicity against normal peripheral mononuclear blood cells: cells of two healthy donors; for 50% response (EC50) in primary mononuclear blood cells: within the preferred therapeutic concentration range
Source text: Both cell lines of aggressive B cell lymphoma (DOHH-2, SU-DHL-4) and the multiple myeloma cell line RPMI8226 were obtained from the German Collection of Microorganisms and Cell Cultures (DSMZ) (ACC 47, ACC 495, and ACC 402, Braunschweig, Germany). The cultivation of the multiple myeloma cell line INA-6 had been previously described (R. Burger, A. Guenther, F. Bakker, M. Schmalzing, S. Bernand, W. Baum, B. Duerr, G. M. Hocke, H. Steininger, E. Gebhart, M. Gramatzki, Hematol. J. 2001, 2, 42-53). Normal mononuclear blood cells from the peripheral blood of two healthy donors were isolated by Ficoll-Hypaque density gradient centrifugation. To assess the percentage of apoptotic and viable cell fractions, a human annexin V-FITC/PI staining kit (Bender MedSystems, Vienna, Austria) was used. Cells (inoculation: 50000 cells mL^−1; incubation: 72 h) were washed in PBS, incubated for 10 min in 100 ml binding buffer (10 mM HEPES/NaOH, pH 7.4, 140 mM NaCl, 2.5 mM CaCl2) containing 2.5 ml annexin V-FITC mix and 1 mg/ml propidium iodide (PI), subsequently diluted with 300 ml binding buffer and analyzed by flow cytometry (FACSCalibur/CELLQuest; Becton Dickinson, Heidelberg, Germany). Early apoptosis is characterized by a positive annexin V-FITC staining. Cells in a late apoptotic stage lose their membrane integrity and additionally incorporate PI. Viable cells are negative for both, annexin V-FITC and PI. The optical density of the controls was equaled to 100%.

[7] = Leishmania donovani, 72 h, axenic amastigotes

| melting point [°C] | pEC50 [2] | pEC50 [3] | pEC50 [4] | pEC50 [5] | Compound | inhibition at 0.8 µg/mL [1, 7] [%] | inhibition at 4.8 µg/mL [1, 7] [%] | activity against Leishmania donovani (in words) [1] | toxicity against normal peripheral mononuclear blood cells [6] | 50% response (EC50) in primary mononuclear blood cells [6] | inhibition at 0.22 µg/mL ([1]; Leishmania donovani, c = 0.22 μg/ml (positive control), 72 h, axenic amastigotes, read-out: Inhibition of cell growth (%)) [%] |
| --- | --- | --- | --- | --- | --- | --- | --- | --- | --- | --- | --- |
| 218 |  |  |  |  | COc1ccc2c(c1OC)C(=O)C(O)=C(C)C2=O [Ancistroquinone C (1f), 3-Hydroxy-5,6-dimethoxy-2-methyl-1,4-naphthoquinone] |  |  |  |  |  |  |
|  |  |  |  |  | COc1cc(O)c2c(c1OC)C(=O)C(O)=C(C)C2=O [Ancistroquinone D (1c), 3,8-dihydroxy-5,6-dimethoxy-2-methyl-1,4-naphthoquinone] | 11.4 | 31.7 |  |  |  |  |
|  |  |  |  |  | CC1=C(O)C(=O)c2c(O)c3c(c(O)c2C1=O)OCO3 [Ancistroquinone E (1d), 3,5,8-trihydroxy-2-methyl-6,7-methylenedioxy-1,4-naphthoquinone] | 19.6 | 30.5 |  |  |  |  |
|  |  |  |  |  | COc1c2c(cc3c1C(=O)C(O)=C(C)C3=O)OCO2 [Ancistroquinone F (1e), 3-hydroxy-5-methoxy-2-methyl-6,7-methylenedioxy-1,4-naphthoquinone] | 0.3 | 28.6 |  |  |  |  |
| 189 | 4.43 | 4.49 | 4.54 | 4.24 | CC1=C(O)C(=O)c2c(ccc(O[C@@H]3OC(CO)[C@@H](O)[C@H](O)[C@H]3O)c2O)C1=O (stereo partly drawn) [Dioncoquinone A (1a), 3,5,6-trihydroxy-2-methyl-1,4-naphthoquinone-6-O-β-glucoside] | 49.6 | 80.3 | excellent | non-toxic | neither for Dioncoquinone A (1a) or for Dioncoquinone B (1b) a 50% response was achieved |  |
| 216 to 217 | 5.03 | 5.12 | 4.96 | 4.74 | CC1=C(O)C(=O)c2c(ccc(O)c2O)C1=O [Dioncoquinone B (1b), 3,5,6-trihydroxy-2-methyl-1,4-naphthoquinone] | 79.2 | 87.6 | excellent | non-toxic | neither for Dioncoquinone A (1a) or for Dioncoquinone B (1b) a 50% response was achieved |  |
|  |  |  |  |  | CCCCCCCCCCCCCCCCOP(=O)([O-])OCC[N+](C)(C)C [Miltefosine, miltefosine, reference compound] |  |  |  |  |  | 53 |
